Entries after “also recorded” stand apart in the source; their conditions may differ.
Columns and labels:
spinal cord of EAE mice = experiment: EAE, histopathology of spinal cord (demyelination plaques, infiltration); type: in vivo, mouse; details: ORY-2001 0.5 mg/kg; for infiltrating/demyelinating plaques in spinal cord: day 17, FTY720 1.0 mg/kg
Protocol: Cervical and lumbar spinal cord segments of spinal cords obtained from EAE mice sacrificed on day 17 or 26 post-immunization were divided and processed for inclusion and sectioning in paraffin and for inclusion in an optimal cutting temperature (OCT) compound and future cryosectioning of the samples. Spinal cord segments were immediately fixed with buffered 10% formalin for 48 h, dehydrated and included in paraffin using standard techniques. For a preliminary analysis, transversal sections (4 µm thickness) were stained with Luxol fast blue, cresyl violet, and hematoxylin following the Klüver–Barrera technique and were analyzed for the presence of areas of demyelination and cell infiltration using a light microscope (Leica, DM2000). After hematoxylin/eosin staining in the TMEV model, cell infiltration in the cervical and thoracic spinal cord was evaluated according to the criteria of Mansilla et al.: score 0: no lesion; 1: cellular infiltration only in the meninges; 2: very discrete and superficial infiltrates in the parenchyma; 3: moderate infiltration (less than 25%) in the white matter; 4: severe infiltration (less than 50%) in the white matter; and 5: high severe infiltration (>50%) in the white matter. The remaining spinal cord segments from EAE mice and from mice of the TMEV model were fixed with 4% paraformaldehyde/0.1 M phosphate buffer pH 7.4 for 12 h at 4 °C, cryopreserved in 30% sucrose in PBS for 24 h, embedded in OCT in liquid nitrogen, and stored at −80 °C prior to cryosectioning and immunohistochemistry. 20 and 30 µm-thick transversal cryostat sections from Tissue Tek embedded tissue were obtained from EAE and TMEV samples, respectively, and kept in a cryoprotection solution (30% ethylene glycol, 10 mg/mL polyvinylpyrrolidone-40 (PVP-40), 300 mg/mL sucrose in 60 mM PB) at −20 °C. Mouse #6 from the TMEV + vehicle group died on day 77 post-infection and was therefore not included.

[1] = test system: spleen and lymph nodes of EAE mice; experiment: EAE, cell number in spleen and lymph nodes, flow cytometry of CD4 T cells; type: in vivo, mouse; details: ORY-2001 0.5 mg/kg; for CD4+ T cell population of the lymph nodes / cellularity in lymph nodes / number of effector T cells in lymph nodes: FTY720 1.0 mg/kg
Description: For mechanistic studies in the EAE model, animals were divided into two groups, and samples were collected on day 26 post-immunization (sub-chronic phase), 3 days after the last dose, or on day 17 post-immunization for evaluating the effector phase. For this, mice were euthanized by intracardiac perfusion with saline (0.9%NaCl in H2O MilliQ) after pentobarbital anesthesia (Doletal), and blood samples, spleen, draining lymph nodes (DLNs: cervical, inguinal and axillary), brain, and spinal cord were removed. Serum samples were used for autoantibodies determination. Single-cell suspensions were obtained from spleen or pooled DLNs and used for the determination of cell number and auto-reactive and inflammatory responses, as described later. Brain and spinal segments of the cervical and lumbar regions were prepared separately and processed for RNA isolation, protein extraction, and histopathological analysis. Proteins were extracted from cervical and lumbar segments of spinal cord and brain from EAE mice via homogenization (50 mg tissue/mL) in lysis buffer (50 mM Tris-HCl, pH 7.4, 0.5 mM DTT, and 10 µg/mL proteinase inhibitors PMSF, pepstatin, and leupeptin). Samples were centrifuged (20.000× g, 15 min, 4 °C), and the supernatants were assayed for protein concentration (using Bradford method) and for cytokine/chemokine contents by using specific sandwich ELISAs according to manufacturer’s recommendations (BD Bioscience, Heidelberg, Germany and Peprotech, London, UK). In the TMEV model on day 86 after infection, mice were anesthetized and perfused transcardially, as described above. Spinal cords were obtained via extrusion with saline and prepared for further study.
For the identification of naïve, memory, and effector T cells, lymph nodes were isolated from different EAE groups at the peak of the disease. Cells were collected and distributed into polystyrene tubes for flow cytometry at 0.5 × 10^6 cells/tube and washed twice with washing buffer (10% FBS, 1% sodium azide in PBS; 300 g 5 min 4 °C). Before specific staining, cells were blocked with mouse BD Fc block to avoid nonspecific binding to Fc- receptors and marked with 7-AAD (7-amino-actinomycin D, Calbiochem, San Diego, CA, USA) to distinguish dead cells. Then, cells were incubated with PerCP/Cy5.5 conjugated anti-CD4, APC conjugated anti- CD62L (2 µg/mL), and PE conjugated anti-CD44 mAbs (0.5 µg/mL), following manufacturer’s recommendations (BioLegend) (Supplementary Materials Table S4). Briefly, after washing, cells were stained for 30 min at 4 °C, washed again, and analyzed in a FACSCalibur flow cytometer (BD Pharmingen, Le Pont-de-Claix, France). We used isotype-matched antibodies as controls.

spleen cells of EAE mice = experiment: EAE, autoreactive response of spleen cells from treated mice (proliferation, cytokines/chemokines); type: in vivo, mouse; details: ORY-2001 0.5 mg/kg; for IFNγ and IL-4 in Con A-stimulated spleen cells: FTY720 1.0 mg/kg
Protocol: (§1) Spleen and draining lymph node (DLN) cells (10^6/mL) collected from EAE mice were stimulated in complete medium (RPMI 1640 containing 10% FBS, 50 µM 2-ME, 2 mM L-glutamine, 100 U/mL penicillin, and 100 µg/mL streptomycin) with 15 µM MOG35–55. After 48 h, cytokine (IL-4, TNF-alpha, IFN-gamma) and chemokine (IP-10 and MCP1) contents in culture supernatants were determined by sandwich ELISAs using capture/biotinylated detection Abs according to the manufacturer’s recommendations. The antibodies used are indicated in Supplementary Materials Table S4. Cell proliferation was evaluated after 72 h by adding 2.5 µCi/mL tritiated-thymidine during the last 8 h of culture and determining cpm incorporation in a Microbeta counter. We used T cell activation with an anti-CD3 […] antibody (1 µg/mL) or ConA (2.5 µg/mL) as controls of unspecific polyclonal stimulation.

recombinant HDAC2 = target: T1, recombinant HDAC2 (Homo sapiens, UniProt Q92769); experiment: HDAC2 fluorimetric biochemical assay
T1 construct: purchased BPS Bioscience 50002
T1 sequence (Q92769 whole entry): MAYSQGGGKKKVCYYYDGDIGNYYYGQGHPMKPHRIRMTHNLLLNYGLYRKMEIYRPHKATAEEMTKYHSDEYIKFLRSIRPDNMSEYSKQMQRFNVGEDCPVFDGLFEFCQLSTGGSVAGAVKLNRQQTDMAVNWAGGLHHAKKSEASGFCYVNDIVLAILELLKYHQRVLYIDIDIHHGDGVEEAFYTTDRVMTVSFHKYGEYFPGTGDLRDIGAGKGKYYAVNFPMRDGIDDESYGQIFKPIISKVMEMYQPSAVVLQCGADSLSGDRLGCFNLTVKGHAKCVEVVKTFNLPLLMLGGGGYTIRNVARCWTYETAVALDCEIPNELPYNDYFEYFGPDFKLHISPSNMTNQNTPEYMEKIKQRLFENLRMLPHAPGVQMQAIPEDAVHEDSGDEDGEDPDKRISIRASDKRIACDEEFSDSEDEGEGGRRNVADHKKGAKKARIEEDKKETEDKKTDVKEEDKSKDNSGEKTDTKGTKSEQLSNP
Protocol: HDAC2 activity was determined using a fluorimetric assay at BPS Bioscience (San Diego, CA, USA). Compounds were dissolved in DMSO (Sigma), and serial dilutions were further diluted in HDAC assay buffer (BPS). These working solutions were incubated in duplicate at room temperature for 3 h in a mixture containing HDAC assay buffer, BSA (Fisher Scientific), and recombinant HDAC2 (BPS). The enzymatic reactions were initiated by the addition of a fluorogenic, acetylated peptide substrate (BPS) and proceeded for 30 min at 37 °C. Then, HDAC assay developer (BPS) was added, and after further incubation at room temperature, fluorescence intensity was measured at an excitation of 360 nm and an emission of 460 nm using a Tecan Infinite M1000 microplate reader. Trichostatin A (TSA, Selleckchem, Houston, TX, USA) was used as a reference inhibitor.
For the biochemical assays, the fluorescence signal relative to the background (assay mixture in the absence of the enzyme) was subtracted from each fluorescent intensity data. Activity in the presence of compound was expressed as a percentage of fluorescence intensity in the absence of the compound.

[2] = test system: spleen cells isolated from mice suffering chronic EAE; experiment: Encephalitogenic T-cell response in vitro, spleen cells of EAE mice re-stimulated with MOG35–55; type: cell-based, mouse; details: 0.5 µM ORY-2001, MOG35–55 15 µM
Protocol: as §1
Data are the mean ± SEM with dots representing individual values of biologically independent animals.

Compound | infiltrating/demyelinating plaques in spinal cord (spinal cord of EAE mice) | CD4+ T cell population of the lymph nodes ([1]; day 17) | cellularity in lymph nodes ([1]; day 17) | number of effector T cells in lymph nodes ([1]; day 17) | IFNγ and IL-4 in Con A-stimulated spleen cells (spleen cells of EAE mice; day 17) | impact on recombinant HDAC2 activity (recombinant HDAC2) | plaques with inflammatory infiltrates and areas of demyelination (spinal cord of EAE mice; day 26, lumbar and cervical, ORY-LSD1 180 µg/kg) | cellularity in spleen ([1]; day 17) | number of immune cells in spleen and lymph nodes ([1]; day 26, ORY-LSD1 180 µg/kg) | IP-10 and MCP-1 production induced by MOG35–55 (spleen cells of EAE mice; day 17) | MOG35–55-induced proliferation of spleen cells (spleen cells of EAE mice; day 17) | TNF-alpha and MCP-1 levels, MOG35–55-specific recall response (spleen cells of EAE mice; day 26) | IFNγ, IL-17 and IP-10 levels, MOG35–55-specific recall response (spleen cells of EAE mice; day 26, ORY-LSD1 180 µg/kg) | IL-4 production by spleen cells (spleen cells of EAE mice; day 26, ORY-LSD1 180 µg/kg) | MOG35–55- and anti-CD3-stimulated proliferation of spleen lymphocytes (spleen cells of EAE mice; day 26, ORY-LSD1 180 µg/kg) | IL-10 and IL-4 levels [2] | MOG35–55-induced proliferation and cytokine production [2]
CCCCCCCCc1ccc(CCC(N)(CO)CO)cc1 [FTY720, Fingolimod, reference compound] | reduced the number and size of demyelinating plaques in cervical but not in lumbar sections | increased the CD^4+ T cell population of the lymph nodes | increased the cellularity in lymph nodes | significantly increased | reduced the levels of IFNγ and increased IL-4 release | did not inhibit HDAC; also recorded: unable to confirm the previous studies reporting that FTY720 or FTY720-P had any significant impact | – | – | – | – | – | – | – | – | – | – | –
Nc1nnc(CN[C@@H]2C[C@H]2c2ccc(OCc3ccccc3)cc2)o1 [ORY-2001] | reduced the presence of infiltrating/demyelinating plaques in both cervical and lumbar segments | increased the CD^4+ T cell population of the lymph nodes | increased the cellularity in lymph nodes | significantly increased | neither affected such cytokines (at the time of study) nor TNF-alpha | – | significantly reduced the number of plaques | increased it significantly in the spleen | significant increase in the number of immune cells | significant increase in the production of the pro-inflammatory chemokines IP-10 and MCP-1 | significantly reduced the MOG35–55-induced proliferation of spleen cells | significantly reduced the levels of TNF-alpha and MCP-1 | produced equivalent levels of IFNγ, IL-17, and IP-10 | increased with both treatments | reduced MOG35–55 but not anti-CD3 -stimulated proliferation | increasing the levels of the anti-inflammatory mediators IL-10 and IL-4 | deactivated the MOG35–55 -induced proliferation and cytokine production in vitro

Source: article PMC9323733, “Efficacy of Vafidemstat in Experimental Autoimmune Encephalomyelitis Highlights the KDM1A/RCOR1/HDAC Epigenetic Axis in Multiple Sclerosis” (Pharmaceutics, 2022)
